Assay results from US20060189613A1, “Sulphonamide Compounds that Modulate Chemokine Receptor Activity (CCR4)” (priority 2003, published 2006).

| Compound | melting point |
| --- | --- |
| O=S(=O)(Nc1nnc(Cl)cc1OCc1cccnc1)c1cccc(Cl)c1Cl [Example 3, 2,3-Dichloro-N-[6-chloro-4-(3-pyridinylmethoxy)-3-pyridazinyl]benzenesulphonamide] | 216 to 217 °C |
| COc1ncc(NS(=O)(=O)c2cccc(Cl)c2Cl)c(OC)n1 [Example 5, 2,3-Dichloro-N-[2,4-dimethoxy-5-pyrimidinyl]benzenesulphonamide] | 124 to 126 °C |
| COc1ncncc1NS(=O)(=O)c1cccc(Cl)c1Cl [Example 6, 2,3-Dichloro-N-[4-methoxy-5-pyrimidinyl]benzenesulphonamide] | 204 to 211 °C |
| COc1cnc(Cl)nc1NS(=O)(=O)c1cccc(Cl)c1Cl [Example 7, 2,3-Dichloro-N-[2-chloro-5-methoxy-4-pyrimidinyl]benzenesulphonamide] | 244 to 245 °C |
| COc1cncnc1NS(=O)(=O)c1cccc(Cl)c1Cl [Example 8, 2,3-Dichloro-N-[5-methoxy-4-pyrimidinyl]benzenesulphonamide] | 278 to 279 °C |
| COc1cnc(C(F)(F)F)nc1NS(=O)(=O)c1cccc(Cl)c1Cl [Example 10, 2,3-Dichloro-N-[5-methoxy-2-trifluoromethyl-4-pyrimidinyl]benzenesulphonamide] | 190 to 191 °C |

Results, then the molecule that gave them:

| melting point | Compound |
| --- | --- |
| 210 to 211 °C | COc1ccnnc1NS(=O)(=O)c1cccc(Cl)c1Cl [Example 1, 2,3-Dichloro-N-[4-methoxy-3-pyridazinyl]benzenesulphonamide] |
| 226 to 227 °C | COc1cc(Cl)nnc1NS(=O)(=O)c1cccc(Cl)c1Cl [Example 2, 2,3-Dichloro-N-[6-chloro-4-methoxy-3-pyridazinyl]benzenesulphonamide] |
| 201 to 202 °C | COc1cnc(Cl)nc1NS(=O)(=O)c1ccc(Cl)s1 [Example 11, 5-Chloro-thiophene-2-sulphonic acid, [2-chloro-5-methoxy-4-pyrimidinyl]amide] |
| 249 to 250 °C | COc1cnc(C)nc1NS(=O)(=O)c1ccc(Cl)s1 [Example 12, 5-Chloro-thiophene-2-sulphonic acid, [5-methoxy-2-methyl-4-pyrimidinyl]amide] |
| 120 to 122 °C | COc1cc(Cl)nnc1NS(=O)(=O)c1ccc(Cl)s1 [Example 13, 5-Chloro-N-[6-chloro-4-methoxy-3-pyridazinyl]thiophene-2-sulphonamide] |
